# Test results published in patent publication US12055553B2, “Method for diagnosing risk for inflammatory disease through glycan profiling” (The Regents of the University of California, priority 2017, dated 2024).
# Key:
# [1] = system: Caco-2 cells; assay type: cell-based; conditions: Caco-2, kifunensine-treated
# Procedure: We examined whether supplementation of free monosacchaides derived from diet changes N-glycosylation outcomes on the intestinal cell-surface at concentrations relevant to physiological conditions. Changes in glycosylation were assessed by globally releasing glycans from membrane proteins extracted from fully differentiated (Caco-2) and partially differentiated (HT-29) intestinal epithelial cells and analyzing the mixture by porous graphitized carbon (PGC)-LC-MS. […] The glycan profile under normal growth conditions was used as a frame of reference with which to compare the glycome at varied environments.
# Human colorectal adenocarcinoma Caco-2 cells derived from a person, were obtained from American Type Culture Collection (ATCC, VA) and grown in Eagle's Minimum Essential Medium (EMEM) supplemented with non-essential amino acids, 2 mM L-glutamine, 10% (v/v) fetal bovine serum (Life Technologies, NY), 1 mM sodium pyruvate, 1.5 g/L sodium bicarbonate, 100 U/mL penicillin, and 100 μg/mL streptomycin. Alternatively, Caco-2 cells were grown in Dulbecco's Modified Eagle's Medium (DMEM) supplemented with 10% (v/v) fetal bovine serum, 100 U/mL penicillin, and 100 μg/mL streptomycin. Human colorectal adenocarcinoma HT-29 cells, derived from a person, were obtained from ATCC and grown in McCoy's 5A medium supplemented with 10% (v/v) fetal bovine serum, 100 U/mL penicillin, and 100 μg/mL streptomycin. Cells were subcultured at 80% confluency and maintained at 37° C. in a humidified incubator with 5% CO=2. All treatments were added to the media after cell differentiation. Caco-2 cells were fully differentiated 14-days post-confluency. HT-29 cells were partially differentiated 4-days post-confluency. After 72 h, cells were collected in biological triplicates by scraping A fixed count of 2×10^6 viable cells was used for each experiment Passage number between experiments was controlled to no higher than P40 and a delta P of no more than 20. High passage cells were scraped after P80. Media was renewed three times a week unless specified. Monolayer integrity and quality of cell borders were evaluated under the microscope routinely during growth and before harvest.
# In brief harvested cells were resuspended in homogenization buffer containing 0.25 M sucrose, 20 mM HEPES-KOH (pH 7.4), and 1:100 protease inhibitor (EMD Millipore, CA). Cell lysis was performed on ice using a probe sonicator (Qsonica, CT) with five alternating and on and off pulses in 5 and 10 s intervals, respectively. Lysates were […] at 2,000×g for 10 min to remove the nuclear fraction and cellular debris. The supernatant was collected and brought to 1 mL with homogenization buffer for ultracentrifugation at 200,000×g for 45 min at 4° C. The pallet was resuspended and repelleted by ultracentrifugation in 0.2 M Na2CO3 (pH 11) followed by water to fragment the endoplasmic reticulum and remove the cytoplasmic fraction, respectively. The resulting membrane faction was isolated and stored at −20° C. until further processing.
# Membrane pellets were resuspended with 100 μL of 100 mM ammonium bicarbonate in 5 mM dithiothreitol and heated for 10 s at 100° C. to thermally denature the proteins. […] After addition of 400 μL of chilled ethanol, samples were placed in −80° C. for 1.5 h and centrifuged for 20 min at 21,130×g to precipitate residual deglycosylated proteins. The supernatant containing the released N-glycans was collected and dried. N-Glycans were purified by solid phase extraction containing a porous graphitized carbon (PGC) matrix. Eluted fractions were dried in vacuo.
# [2] = system: Caco-2 cells; assay: Permeability assay, FITC-dextran passage through Caco-2 monolayer; assay type: cell-based, Human; conditions: 100 μg/mL treatment, after 2 h, untreated to treated, n=4
# Procedure: Caco-2 cells were seeded on porous polycarbonate filter membranes (3401; Corning, NY) until cells formed a single monolayer and were fully differentiated. Kifunensine (Carbosynth, CA) was added post-differeniation for 72 h. Four replicates were prepared for both control and kifunensine-treated cases. Permeability experiments were performed in Hank's Balanced Salt Solution, prepared with 25 mM HEPES, 0.35 g/L sodium bicarbonate, and adjusted to pH 7.4 with sodium hydroxide. The prepared membranes were washed and inserted into a new micro-well plate. FITC-dextran (4 kDa) (Sigma-Aldrich, MO) was introduced to the upper (apical) chamber at 10 mg/mL. The plate was placed in a 37° C. incubator devoid of CO2 for 2 h on an orbital shaker at 100 rpm. The amount of FITC-dextran that transferred through the cells was measured in the lower (basolateral) chamber by fluorescence at 492/520 nm (excitation/emission) using a Perkin Elmer Victor3 Multilabel Plate Reader (Parkin Elmer, MA). The apparent permeability coefficient was determined according to the following equation: [formula] where dQ/dt is the rate of permeation across cells, A is the surface area of the membrane, and C0 is the initial donor concentration. Transepithelial electrical resistance (TEER) values were measured using a Millicell ERS Voltohmmeter (EMD Millipore, MA) at room temperature. Enzyme Activity Assay
# [3] = system: alkaline phosphatase (IAP); assay: Intestinal alkaline phosphatase activity in membrane fractions of treated Caco-2 cells; assay type: cell-based, Human; conditions: enriched membrane fractions of kifunensine-treated (high mannose rich) cells
# Procedure: Intestinal alkaline phosphatase (IAP) activity was measured in membrane-enriched factions using a colorimetric assay per manufacturer's instructions (Abcam, MA). Cells were incubated with 50 μM p-nitrophenyl phosphate (p-NPP) for 60 min. Dephosphorylated was monitored by the production of p-nitrophenyl, which turns the solution to a visible yellow color. Absorbance readings were taken at 405 nm with a microplate photometer. Enzyme activities were determined with a standard curve generated using IAP enzyme. Activity was measured in U/mL, where a Unit is defined as the amount of enzyme to hydrolyze 1 μmol of p-NPP per minute at 37° C.
# [4] = system: dipeptidyl peptidase IV (DPP IV); assay: Dipeptidyl peptidase IV activity in membrane fractions of treated Caco-2 cells; assay type: cell-based, Human; conditions: membrane fractions of kifunensine-treated cells
# Procedure: Dipeptidyl peptidase IV (DPP IV) activity was measured in membrane-enriched fractions using a colorimetric assay per manufacturer's instructions (Enzo Life sciences, NY). Membrane extracts from control and kifunensine-treated cells were incubated with a chromogenic substrate (H-Gly-Pro-pNa) at 25° C. for 30 min. Cleavage of p-nitroaniline (pNA) was monitored by absorbance measurements at […] with a microplate photometer. Enzyme activities were compared to a standard curve generated using a pNA standard. A reaction containing a DPP IV inhibitor (P32/98) was included as a control for enzymatic specificity.
# [5] = system: enterohaemorrhagic Escherichia coli (EHEC); assay: Bacterial association assay on Caco-2 host cells, EHEC; assay type: cell-based, Escherichia coli O157:H7
# Procedure: (§1) Enterohaemorrhagic Escherichia coli O157H;7 (EHEC) and methicillin-resistant Staphyloccuus aureus (MRSA) were grown at 37° C. with continuous shaking for 14-16 h.
# (§2) Caco-2 cells were seeded into 24-well plates at 5×10^5 cells per well. Wells were designated as control (Row 1) or treated with kifunensine (Row 2). For adhesion, the left half of the plate was infected with logarithmically growing enterohaemorrhagic Escherichia coli O157:H7 (EHEC), and the right half of the plate was infected with methicillin-resistant Staphylocaccus aureus (MRSA). Triplicate setups were prepared for each condition. After 2 h, the wells were washed 3× with PBS and the adherent cell counts were determined by serial dilutions and spotting of the lysate generated upon treatment of the wells with, PBS/0.5% Triton for 5 min. CFU are expressed per mL as a comparison between the different treatments. For measuring uptake, the duplicate plate was similarly infected with EHEC and MRSA. Two hours post-infection, the unbound bacteria were washed with PBS (3×) and the Caco-2-cells were treated with media containing 100 μg/mL gentamicin to lyse cell surface associated bacteria. Following a 2 h-treatment, the internalized bacterial cell counts were derived upon lysing the Caco-2 cells with PBS/0.5% Triton followed by serial dilution and CFU counts.
# [6] = system: methicillin-resistant Staphylococcus aureus (MRSA); assay: Bacterial association assay on Caco-2 host cells, MRSA; assay type: cell-based
# Procedure: as §1, §2
# [7] = hyper-mannosylated (kifunensine-treated) Caco-2, within 2 h
smiles,measurement,setting,value
O=C1N[C@@H]2[C@@H](O)[C@@H](O)[C@H](O)[C@@H](CO)N2C1=O [kifunensine],cell viability,[1],without affecting viability
same,conversion of surface glycans into high mannose glycans,[1],nearly complete conversion
same,maximum increase in passage of FITC-D4 from upper to lower chamber,[2],64%
same,decrease in IAP activity vs unaltered Caco-2 cells,[3],~32%
same,DPP IV activity change,[4],nearly unaffected
same,EHEC uptake in comparison to control cells,"[5]; Caco-2 rich in high mannose glycans (kifunensine-treated), p=0.0005",significantly reduced
same,EHEC binding to the monolayer,[5]; [7],did not significantly affect
same,increase in ability of MRSA to adhere to the monolayer,[6]; [7],> 5000%
same,more MRSA bacteria able to invade transformed host cells than untreated cells,[6]; kifunensine-transformed Caco-2,approximately 30%
